PubChem BioAssay AID651738 (Southern Research Specialized Biocontainment Screening …, 2012)
The source made the active and inactive calls. The rule behind the calls is not given here.

System: not listed separately
Test: Chikungunya virus CPE inhibition, VEEV inhibitor project, cell-based, set 2 (AID 651738)
Conditions: Chikungunya virus infected cells, CPE inhibition; at 50 µM (top of the series)

Row | Compound | inhibition
1 | CN1CCN(C)C(=Nc2ccc(C#N)cc2C(=O)Nc2ccccc2)C1 | 3% (inactive)
2 | O=c1c2cc([N+](=O)[O-])ccc2nc(CN2CCCNC2)n1-c1ccccc1 | -0.2% (inactive)
3 | COc1ccc(Nc2nc(=O)c3cccnc3s2)cc1 | 11.7% (inactive)
4 | COc1ccc(CNc2nc(=O)c3cccnc3s2)cc1 | 0.1% (inactive)
5 | O=c1c2cc([N+](=O)[O-])ccc2nc(CN2CCCNCC2)n1-c1ccccc1 | -3.1% (inactive)
6 | CCN1CCN(Cc2nc3ccc(-c4ccccn4)cc3c(=O)n2-c2ccccc2)CC1 | 4.3% (inactive)
7 | O=c1c2cc(F)c(F)cc2nc(CN2CCNCC2)n1-c1ccccc1 | -1% (inactive)
8 | COc1ccc(NC(=O)c2cc([N+](=O)[O-])ccc2N=C2CN(C)CCN2C)cc1 | 2.2% (inactive)
9 | CN1CCN(C)C(=Nc2ccc([N+](=O)[O-])cc2C(=O)Nc2ccccc2F)C1 | 8.6% (inactive)
10 | CCN1CCN(Cc2nc3ccc([N+](=O)[O-])cc3c(=O)n2-c2ccccc2F)CC1 | -0.8% (inactive)
11 | CN1CCN(C)C(=Nc2ccc([N+](=O)[O-])cc2C(=O)Nc2ccccc2)C1 | -3.1% (inactive)
12 | CCN1CCN(C2c3ncccc3C(=O)N2c2ccccc2)CC1 (stereo not drawn) | -1.8% (inactive)

System: Chikungunya virus infected cells, CPE inhibition
Test: as above
Conditions: not given

Row | Compound | IC50 [nM]
13 | CN(c1ccc(OCc2ccccc2)cc1)c1nc(=O)c2cccnc2s1 | 1720
